The values below come from patent US12491204B2, “Use of oleanolic acid-28-O-beta-D-glucopyranoside in preparation of anti-colitis drug” (JILIN UNIVERSITY, priority 2023, dated 2025).

Molecules are shown by their SMILES.

For experiment [1], the system named is DSS-induced UC model mice. The experiment can be described thus: Inflammatory factor and oxidative stress indicators by ELISA in serum and colon of DSS-induced UC model. It is filed as in vivo, BALB/c male mice. The settings on record: compared with model group; for IL-6 level / TNF-α level / iNOS level: serum and colon, gavage 5-ASA 100 mg/kg, 28-OA-β-G 5, 10, 20 mg/kg. Background: An ELISA detects its analyte on a solid surface through an enzyme-linked reagent.
Method: SPF-grade BALB/c male mice (weighting 22-24 g) were purchased from Changchun Yisi Laboratory Animal Technology Co., Ltd. After 1 week of adaptive feeding, the mice were randomly divided into 6 groups (n=10), including: a control group, a model group, a positive drug group (5-ASA, 100 mg/kg), an oleanolic acid-28-O-β-D-glucopyranoside low-dose group (28-OA-β-GL, 5 mg/kg), an oleanolic acid-28-O-β-D-glucopyranoside medium-dose group (28-OA-β-GM, 10 mg/kg), and an oleanolic acid-28-O-β-D-glucopyranoside high-dose group (28-OA-β-GH, 20 mg/kg). The control group was administrated with distilled water, while the other groups were freely allowed to drink a 3.5% dextran sulfate sodium (M.W.: 40,000 Da, DSS) solution for 7 days to induce a UC model. From the Day 4 to Day 10 of modeling, the mice in the control group and the model group were administrated with distilled water by gavage, while the mice in other groups were administrated with a 5-ASA or 28-OA-β-G solution by gavage, respectively. The gavage was performed once a day. The administration volume was 10 ml/kg. After fasting for 12 hours on the Day 10, whole blood was collected from all mice by using an eyeball blood collection method, the mice were killed by cervical dislocation, and colon tissues and spleen tissues were collected. Content determination of inflammatory factor and oxidative stress indicators: serum and colon tissue samples were collected, and the contents of TNF-α, IL-6, and iNOS in the serum and colon were determined using an ELISA kit, while the levels of MPO, SOD, and MDA in the colon were detected.

Experiment [2] relates to DSS-induced UC model mice. The experiment can be described thus: DSS-induced UC model: body weight, DAI score, colon length, spleen coefficient. It is filed as in vivo, BALB/c male mice. To be noted: for weight loss rate: 3.5% DSS 7 days, gavage once a day Day 4 to Day 10, 28-OA-β-G 5, 10, 20 mg/kg. The protocol: (§1) SPF-grade BALB/c male mice (weighting 22-24 g) were purchased from Changchun Yisi Laboratory Animal Technology Co., Ltd. After 1 week of adaptive feeding, the mice were randomly divided into 6 groups (n=10), including: a control group, a model group, a positive drug group (5-ASA, 100 mg/kg), an oleanolic acid-28-O-β-D-glucopyranoside low-dose group (28-OA-β-GL, 5 mg/kg), an oleanolic acid-28-O-β-D-glucopyranoside medium-dose group (28-OA-β-GM, 10 mg/kg), and an oleanolic acid-28-O-β-D-glucopyranoside high-dose group (28-OA-β-GH, 20 mg/kg).
(§2) The control group was administrated with distilled water, while the other groups were freely allowed to drink a 3.5% dextran sulfate sodium (M.W.: 40,000 Da, DSS) solution for 7 days to induce a UC model. From the Day 4 to Day 10 of modeling, the mice in the control group and the model group were administrated with distilled water by gavage, while the mice in other groups were administrated with a 5-ASA or 28-OA-β-G solution by gavage, respectively. The gavage was performed once a day. The administration volume was 10 ml/kg. After fasting for 12 hours on the Day 10, whole blood was collected from all mice by using an eyeball blood collection method, the mice were killed by cervical dislocation, and colon tissues and spleen tissues were collected.
Body weight and disease activity index scores: during the experiment, all mice were weighed every day, and the general behavior states of the mice were observed; the weight changes, stool states and hematochezia degrees of the mice were recorded every day, and scored according to the criteria shown in Table 3; and an average disease activity index (DAI) score of the mice in each group per day was calculated according to the formula: DAI=(weight loss score+stool state score+hematochezia degree score)/3.
Spleen coefficient: the spleen tissues were dissected and accurately weighed, and the spleen coefficient was calculated using the formula: spleen coefficient=spleen mass (mg)/mouse weight (g), as shown in FIG. 10. The spleen coefficient also reflected the degree of inflammatory response within the body.

The test system of experiment [3] is TNF-α, IL-6, and iNOS in Caco-2 cells. The experiment can be described thus: Inflammatory factors TNF-α, IL-6, iNOS by ELISA in LPS-induced Caco-2 cell model. It is filed as cell-based, Human. To be noted: LPS 1 μg/ml, 24 hours; high-dose groups 8 μM. On the procedure:
(§3) (1) Determination of Transmembrane Epithelial Resistance and Inflammatory Factors in Caco-2 Cells
(§4) The Caco-2 cells were inoculated at a density of 1×10^5 cells/ml (400 μl per well) into a Transwell chamber and cultured under 5% CO2 and 37° C. After Day 21, a medium was replaced with a basal MEM medium. […] Resistance values were measured using a transmembrane resistance meter. TEER value=(measured resistance value−control resistance value)×Transwell chamber area, expressed in Ω·cm^2. […]

Another experiment concerns Caco-2 cells. The experiment in a line: Transmembrane epithelial resistance (TEER) in LPS-induced Caco-2 cells. It is filed as cell-based, Human. The settings on record: LPS 1 μg/ml + 28-OA-β-G 8 μM, 24 hours; compared with LPS treatment. The protocol: as §3, §4
Experiment [4] concerns ZO-1, Occludin, Claudin-1, and E-cadherin in Caco-2 cells. The experiment can be described thus: Expression of tight junction proteins in Caco-2 cells by immunofluorescence. It is filed as cell-based, Human. The settings on record: 24 hours. The protocol: (2) Determination of Expression Level of Tight Junction Proteins in Caco-2 Cells
Caco-2 cells (1×10^5 cells/ml) were inoculated onto a cell climbing slice in a 24-well plate (with 600 μl of cells per well), and reached confluence within 2 days. The cells were divided into 7 groups: a control group, a model group (LPS 1 μg/ml), a 5-ASA group (LPS 1 μg/ml+5-ASA 50 μM), an LPS+28-OA-β-GL group (LPS 1 μg/ml+28-OA-β-G 2 μM), an LPS+28-OA-β-GM group (LPS 1 μg/ml+28-OA-β-G 4 μM), an LPS+28-OA-β-GH group (LPS 1 μg/ml+28-OA-β-G 8 μM), and a 28-OA-β-G group (28-OA-β-G 8 μM). The control group was added with a MEM medium, while the other groups were added with the corresponding doses of LPS and 28-OA-β-G with the MEN medium as a solvent, and incubated in a 5% CO2, 37° C. constant-temperature incubator for 24 hours. Immunofluorescence imaging was performed after a series of treatments.

The subject of experiment [5] is DSS-induced UC model mice. The experiment can be described thus: Transmission electron microscope observation of mouse colon tissues. It is filed as in vivo, BALB/c male mice. The settings on record: 28-OA-β-GH group, 20 mg/kg; compared with model group. On the procedure:
as §1
as §2, with “collected. […]” for “collected.”

Experiment [6] relates to DSS-induced UC model mice. The experiment can be described thus: FD4 permeability analysis in DSS-induced UC model. It is filed as in vivo, BALB/c male mice. To be noted: 20 mg/kg FD4 by gavage 30 minutes before sacrifice; 28-OA-β-G intervention; compared with model group. The protocol: as §1
The control group was administrated with distilled water, while the other groups were freely allowed to drink a 3.5% dextran sulfate sodium (M.W.: 40,000 Da, DSS) solution for 7 days to induce a UC model. […]
FD4 permeability analysis: all mice were administrated with 20 mg/kg FD4 normal saline solution by gavage 30 minutes before sacrifice, whole blood was collected by the eye blood collection method on a sterile ultra-clean table, and the upper serum was taken after centrifugation, and then aspirated into a black 96-well microplate. The fluorescence intensity was detected using a microplate reader at an excitation wavelength of 492 nm and an emission wavelength of 520 nm. […]

For `Nc1ccc(O)c(C(=O)O)c1` [5-ASA, 5-aminosalicylic acid, reference compound], in experiment [1], the IL-6 level entry is given as “significantly decreased”, the TNF-α level entry was “significantly decreased” and the iNOS level entry is given as “significantly decreased”. Moreover, the weight loss rate entry in experiment [2] (5-ASA 100 mg/kg) is “significantly reduced”. The spleen coefficient entry in experiment [2] (positive drug group, 5-ASA 100 mg/kg, compared with model group) is “significantly reduced”.

In the case of `CC1(C)CC[C@]2(C(=O)O[C@@H]3O[C@H](CO)[C@@H](O)[C@H](O)[C@H]3O)CC[C@]3(C)C(=CC[C@@H]4[C@@]5(C)CC[C@H](O)C(C)(C)[C@@H]5CC[C@]43C)[C@@H]2C1` [28-OA-β-G, Oleanolic acid-28-O-β-D-glucopyranoside], the “anti-inflammatory activity (TNF-α, IL-6, iNOS levels), comparison among compounds” value in experiment [3] is listed as “best anti-inflammatory activity among the high-dose administration groups”. Also, the TEER value entry in the experiment with Caco-2 cells is recorded as “significantly increased”. In experiment [1] (colon), the MDA level result is listed as “dose-dependently reduce”, the MPO level entry is “dose-dependently reduce” and the SOD level result is given as “increased”. Further, in experiment [1], the IL-6 level result is reported as “significantly decreased”, the TNF-α level result is recorded as “significantly decreased” and the iNOS level result was “significantly decreased”. Moreover, in experiment [4] (LPS 1 μg/ml + 28-OA-β-G 2, 4, 8 μM, as dose increased), the “distribution on the cell membrane and expression of the four tight junction proteins (ZO-1, Occludin, Claudin-1, E-cadherin)” value was “regained their normal distribution on the cell membrane and also increase the expression”. For the same compound, the “expression of the four tight junction proteins (ZO-1, Occludin, Claudin-1, E-cadherin)” value in experiment [4] (normal cells without LPS, 28-OA-β-G alone 8 μM) is recorded as “not affected”. Moreover, the “ultrastructure of colonic mucosa cells (transmission electron microscope)” value in experiment [5] is listed as “restored the integrity of intestinal mucosa cells”. In addition, in experiment [2] (5-ASA 100 mg/kg), the weight loss rate entry is recorded as “significantly reduced”. In addition, in experiment [2] (28-OA-β-G 5, 10, 20 mg/kg gavage), the “weight changes, relation to dose” value is “positively correlated with the increase in dose”. Further, in experiment [2] (28-OA-β-G high-dose group, 20 mg/kg, compared with model group), the spleen coefficient entry is listed as “significantly reduced”. In experiment [2] (28-OA-β-G medium-dose group, 10 mg/kg, compared with model group), the spleen coefficient result was “significantly reduced”. For the same compound, in experiment [2] (28-OA-β-GH group, 20 mg/kg gavage), the weight changes result is listed as “tended towards the control group”. Also, the “anti-ulcerative-colitis activity (overall conclusion)” value in experiment [2] (DSS-induced UC model, compared with positive control 5-ASA) is recorded as “significant anti-ulcerative-colitis activity which was not statistically different from that of the positive control group of 5-ASA”. Moreover, the “DAI score compared to the 5-ASA group” value in experiment [2] (Day 10, 28-OA-β-GH group, 20 mg/kg, 5-ASA 100 mg/kg) is listed as “no significant difference compared to the 5-ASA group”. Moreover, the DAI score entry in experiment [2] (Day 10, 28-OA-β-GH group, 20 mg/kg, compared with model group) is “significantly lower than that in the model group”. Besides, the “colon length (degree of colon damage)” value in experiment [2] (oral administration of 28-OA-β-G 5, 10, 20 mg/kg, compared with model group) is reported as “effectively alleviated”. Besides, in experiment [6], the “serum FD4 concentration (FD4 permeability)” value was “significantly reduced”.
